According to PubChem BioAssay AID489006 (Sanford-Burnham Center for Chemical Genomics, 2010):
Calls of active or inactive are those of the source. How the calls were made is not given here.

The compounds below were run on Jurkat NF-kB reporter, luminescence (assay: Jurkat NF-kB signaling inhibitors – cell-based, luminescence, selectivity assay for B-cell receptor NF-kB inhibitor project, dose response (AID 489006)).

Row | SMILES | IC50
1 | Cc1ccc(S(=O)(=O)N2CCCCC2CCNC(=O)C(=O)NCc2ccncc2)cc1 (centres undefined) | > 80 µM (inactive)
2 | O=[N+]([O-])c1ccc(Sc2cc[n+]([O-])c3ccccc23)c([N+](=O)[O-])c1 | 6.03 µM
3 | CC(=C\c1ccccc1)/C=C1/SC(=O)N(CCCC(=O)Nc2ccc(C(=O)O)cc2)C1=O | > 80 µM (inactive)
4 | Cc1[nH]c2ccccc2c1C(=O)CN1C(=O)NC2(CC(C)CC(C)(C)C2)C1=O (centres undefined) | 52.7 µM (inactive)
5 | COc1ccc(/C=C2\SC(=S)N(CCCC(=O)NNC(=O)c3ccccc3O)C2=O)cc1 | 0.58 µM
6 | O=C(Oc1cccc(/C=N/Nc2nc(N3CCOCC3)nc(N3CCOCC3)n2)c1)c1ccco1 | > 80 µM (inactive)
7 | CCOc1ccc(-c2cc(CCCC(=O)NCc3ccco3)no2)cc1 | > 80 µM (inactive)
8 | O=C(CCCc1nc(-c2ccccc2Cl)no1)NC1CCCC1 | 1.02 µM
9 | C=C1C(=O)[C@@]23C[C@H]4[C@@H]5[C@@]6(C)CCC[C@@]57[C@@H]2[C@@H](O)[C@@H]1C[C@H]3[C@H]7N4C6 | 2.85 µM
10 | CC1=CC(C)(C)Nc2ccc(OC(=O)C(Cc3ccccc3)N3C(=O)c4ccccc4C3=O)cc21 (centres undefined) | 7.32 µM
11 | CNC(=O)CSc1nc2nn(-c3ccccc3)c(=O)c-2c2n1CCCCC2 | > 80 µM (inactive)
12 | COc1ccc(NC(=S)NCc2ccccc2)c(OC)c1 | > 80 µM (inactive)
13 | CC1CCN(c2c(NCc3ccc(C(=O)N4c5ccccc5CC4C)cc3)c(=O)c2=O)CC1 (centres undefined) | > 80 µM (inactive)
14 | CCOC(=O)Cc1ccc(NC(=O)c2ccc(C(C)(C)C)cc2)cc1 | 0.25 µM
15 | Cc1ccc(-n2c(-c3ccccc3)c[n+]3c2CCc2ccccc2-3)c(C)c1 | 12.5 µM
16 | COc1ccc(NS(=O)(=O)c2cc(NC(=O)c3cc(=O)c4ccccc4o3)ccc2OC)cc1 | > 80 µM (inactive)
17 | COc1cc2c3c(c1)c(N=NC(N)=S)c(O)n3C(C)(C)C=C2C | > 80 µM (inactive)
18 | CCN(CC(=O)Nc1c(F)cccc1F)C(=O)c1cc(S(=O)(=O)N2CCOCC2)ccc1N1CCCC1 | > 80 µM (inactive)
19 | CCN1C(=O)c2cccc3c(S(=O)(=O)N4CCC(C)CC4)ccc1c23 | > 80 µM (inactive)
20 | CCN(CC)c1ccc(/C=C2/C(=O)ON=C2C)cc1 | 19.3 µM
21 | COc1ccc(/C=N/OCC(=O)NC(c2ccccc2)c2ccccc2)cc1OC | > 80 µM (inactive)
22 | CC1CCc2c(sc3nc(C(C)(C)C)nc(N4CCN(C(=O)CCl)CC4)c23)C1 (centres undefined) | 1.27 µM
23 | CCOc1ccc(-c2nnc(SCC(=O)Nc3cc(C)on3)o2)cc1 | 1.52 µM

Row | SMILES | IC50
24 | COc1ccc(/C=C2\SC(=S)N(CCC(=O)Nc3ccc(C(=O)O)cc3)C2=O)cc1 | > 80 µM (inactive)
25 | C[C@H]1CCC/C=C/C2C[C@H](O)CC2[C@H](O)/C=C/C(=O)O1 (some centres undefined) | > 80 µM (inactive)
26 | CN(C)c1cc[n+](Cc2c(Cl)cccc2Cl)cc1 | > 80 µM (inactive)
27 | CC(C)(C)c1ccc(-n2ncc3c2CCCC3NC(=O)C2(C(N)=O)CC2)cc1 (centres undefined) | > 80 µM (inactive)
28 | Cc1cccn2c(=O)c3cc(C(=O)NC4CCCCC4)c(=N)n(CCN4CCOCC4)c3nc12 | > 80 µM (inactive)
29 | O=C(NNC(=O)C12CC3CC(CC(Br)(C3)C1)C2)c1ccccc1F | > 80 µM (inactive)
30 | CCOc1ccc(-c2c[n+]3c(n2-c2ccccc2)CCCCC3)cc1 | > 80 µM (inactive)
31 | COc1cc(-c2nc(C(=O)NCC3CCCO3)cc3c2[nH]c2ccccc23)cc(OC)c1OC (centres undefined) | 18 µM
32 | CC1CCC/C=C/C2CC(O)CC2C(O)/C=C/C(=O)O1 (centres undefined) | > 80 µM (inactive)
33 | Nc1ccc(-c2cc3ccccc3oc2=O)cc1 | 0.24 µM
34 | O=C(CN1C(=O)c2ccccc2S1(=O)=O)N1CCc2ccccc21 | 1.76 µM
35 | CCN1C(=O)c2cccc3c(NC(=O)c4cccc(N5C(=O)CCC5=O)c4)ccc1c23 | > 80 µM (inactive)
36 | CC1Cc2ccccc2N1S(=O)(=O)c1cnc(Cl)c(Br)c1 (centres undefined) | 27.2 µM (inactive)
37 | CCCCCOc1ccc(NC(=O)C(=O)NCCCn2ccnc2)cc1 | > 80 µM (inactive)
38 | O=C(NNC(=O)c1ccccc1O)c1ccc(Cl)c(S(=O)(=O)N2CCc3ccccc32)c1 | > 80 µM (inactive)
39 | CCOCCCNc1nc2c(C)cccn2c(=O)c1/C=C1\SC(=S)N(C(C)CC)C1=O (centres undefined) | > 80 µM (inactive)
40 | CN1C(=O)CSc2ccc(NC(=O)N3CCN(c4ccccc4)CC3)cc21 | > 80 µM (inactive)
41 | CSC1CCCCC1(O)CSc1nc2c(cc1C#N)CCCC2 (centres undefined) | > 80 µM (inactive)
42 | CC(=O)c1cccc(S(=O)(=O)Nc2cc(C(F)(F)F)ccc2N2CCOCC2)c1 | 62.2 µM (inactive)
43 | COc1cc(Br)c(C(=O)c2nccc3cc(OC)c(OC)cc23)cc1OC | > 80 µM (inactive)
44 | O=C(NNC(=O)C12CC3CC(CC(C3)C1)C2)c1cccc(O)c1 | > 80 µM (inactive)
45 | CCOC(=O)C1CCN(c2ncnc3c2cnn3-c2ccc(OC)cc2)CC1 | > 80 µM (inactive)
46 | Cc1cc(C)c(S(=O)(=O)NCc2ccncc2)c(C)c1 | > 80 µM (inactive)

Row | SMILES | IC50
47 | Cc1nn(C(C)(C)C)c(C)c1/C=N/OC(=O)Nc1ccc(Cl)c(Cl)c1 | 0.208 µM
48 | Cc1nc2cc(-c3cccc(F)c3)nn2c(C)c1CCC(=O)NC(C)CCc1ccco1 (centres undefined) | 4.14 µM
49 | COc1ccc(C(=O)Nc2ccc(OC)c([N+](=O)[O-])c2)cc1Br | > 80 µM (inactive)
50 | COc1ccc2nc(C)cc(Sc3nc4ccccc4s3)c2c1 | 2.53 µM
51 | COc1ccc(S(=O)(=O)Nc2cc3c(C(C)=O)c(C)oc3c3ccccc23)cc1 | > 80 µM (inactive)
52 | COCCNC(=O)CSCc1nc(-c2ccc(SC)cc2)oc1C | > 80 µM (inactive)
53 | NC(=O)C1CCN(C(=O)COc2ccc3ccccc3c2Br)CC1 | > 80 µM (inactive)
54 | COc1ccc(C(=O)Nc2nnc(Cc3cccs3)s2)cc1OC | > 80 µM (inactive)
55 | CCN(CC)C(=O)c1ccc(S(=O)(=O)Cc2ccc(C)cc2)c([N+](=O)[O-])c1 | 7.08 µM
56 | CC1=CC(C)(C)Nc2ccc(OC(=O)c3cccnc3)cc21 | 1.17 µM
57 | COc1cc(NC(=O)c2cc3c(C)nc4ccccc4c3o2)cc(OC)c1OC | > 80 µM (inactive)
58 | COc1ccccc1/C=C1\SC(=S)N(CCC(=O)Nc2cccc(O)c2)C1=O | > 80 µM (inactive)
59 | O=C(CCCN1C(=O)/C(=C/c2ccccc2Cl)SC1=S)NNC(=O)c1ccccc1Cl | 1.76 µM
60 | CCCS(=O)(=O)Nc1cccc(-c2ccc3nnc(C)n3n2)c1 | > 80 µM (inactive)
61 | CCn1c(=O)c2cc(C(=O)NC(C)C)sc2c2ccccc21 | > 80 µM (inactive)
62 | Cc1ccc(C(=O)NNC(=O)CCCN2C(=O)/C(=C/c3ccccc3Cl)SC2=S)cc1 | 4.81 µM
63 | CC1(C)CC2CC(C)(CN2S(=O)(=O)c2ccc(C(=O)Nc3ccc(S(=O)(=O)N4CCOCC4)cc3)cc2)C1 (centres undefined) | > 80 µM (inactive)
64 | Cc1nc([N+](=O)[O-])c(Sc2nc3ccc([N+](=O)[O-])cc3[nH]2)n1Cc1ccccc1 | 7.42 µM
65 | CCn1c(=O)cc(OCC(=O)Nc2ccc(OC)c(OC)c2)c2ccccc21 | > 80 µM (inactive)
66 | COc1ccccc1/C=C1\SC(=S)N(CCC(=O)Nc2cc(C)on2)C1=O | 54.7 µM (inactive)
67 | CC(C)(C)c1ccc(-c2noc(CCC(=O)NCc3ccco3)n2)cc1 | 1.13 µM
68 | CC(C)(C)c1ccc(-c2noc(CCC(=O)N3CCOCC3)n2)cc1 | > 80 µM (inactive)
69 | O=C(O)CCSc1ncnc2sc(-c3ccccc3)cc12 | 1.07 µM
